Assay results taken from PMC9866191, “Novel 9-Benzylaminoacridine Derivatives as Dual Inhibitors of Phosphodiesterase 5 and Topoisomerase II for the Treatment of Colon Cancer” (Molecules, 2023).
Entries after “also recorded” stand apart in the source; their conditions may differ.

Columns and labels:
[1] = system: panel of 60 human tumor cell lines; experiment: NCI 60-cell line one-dose screen (mean); format: cell-based; conditions: mean of the 60 cell lines, single dose 10^−5 M, read-out: Mean % Growth Inhibition
Procedure: The newly synthesized compounds were screened for their in vitro anticancer activity at the Developmental Therapeutic Program (DTP) of the National Cancer Institute (NCI). The screening involved a panel of 60 human tumor cell lines consisting of 9 tissue types to screen for potential anti-cancer agents. The primary screening of submitted compounds was performed by testing a single dose (10^−5 M) in the full NCI-60 panel. The detailed % inhibition by the tested compounds against the 60 cell lines is shown in Tables S1–S3 in the Supporting Information.

HCT-116 cells [2] = experiment: Cell cycle analysis (PI, flow cytometry); format: cell-based, human; conditions: 10 µM, 24 h, PI staining
Procedure: To analyze cell cycle changes, cells permeated at 1 × 10^6 × cells/mL were trypsinized and diluted and then fixed in 70% ethanol at 4 °C. Cell cycle arrest in HCT-116 cells following compound exposure was accomplished using propidium iodide (Sigma-Aldrich, St. Louis, MI, USA). The markers were then assessed using a FACS-Caliburflow cytometer (Beckman Coulter, Taipei, Taiwan) and analyzed using WinMDI software. […]
(§1) Figure 3 Apoptosis induction and cell cycle effects of compounds in HCT-116 cells. (A) The apoptotic population of HCT-116 cells was analyzed using flow cytometry after treatment with 10 µM of the test compound for 24 h followed by Annexin V/propidium iodide (PI) staining. (B) After treatment with compound concentrations of 10 µM for 24 h, cells were fixed, stained with propidium iodide (PI), and analyzed for cell cycle distribution. Results are expressed as the means ± SD from three independent experiments (* p < 0.05 and ** p < 0.01 *** p < 0.001, control versus compound).

human DNA Topo II = target: T1, human DNA Topo II (Homo sapiens, UniProt P11388); experiment: Topo II-mediated relaxation of supercoiled pHOT1 plasmid DNA; format: biochemical; conditions: for DNA band pattern in Topo II relaxation assay: at 1 and 5 µM doses, similar to doxorubicin; for concentration at which Topo II inhibition (increase of supercoiled DNA) is shown: cell-free relaxation assay, gel
T1 construct: purchased Topogen, Columbus, OH, USA
T1 sequence (P11388 whole entry): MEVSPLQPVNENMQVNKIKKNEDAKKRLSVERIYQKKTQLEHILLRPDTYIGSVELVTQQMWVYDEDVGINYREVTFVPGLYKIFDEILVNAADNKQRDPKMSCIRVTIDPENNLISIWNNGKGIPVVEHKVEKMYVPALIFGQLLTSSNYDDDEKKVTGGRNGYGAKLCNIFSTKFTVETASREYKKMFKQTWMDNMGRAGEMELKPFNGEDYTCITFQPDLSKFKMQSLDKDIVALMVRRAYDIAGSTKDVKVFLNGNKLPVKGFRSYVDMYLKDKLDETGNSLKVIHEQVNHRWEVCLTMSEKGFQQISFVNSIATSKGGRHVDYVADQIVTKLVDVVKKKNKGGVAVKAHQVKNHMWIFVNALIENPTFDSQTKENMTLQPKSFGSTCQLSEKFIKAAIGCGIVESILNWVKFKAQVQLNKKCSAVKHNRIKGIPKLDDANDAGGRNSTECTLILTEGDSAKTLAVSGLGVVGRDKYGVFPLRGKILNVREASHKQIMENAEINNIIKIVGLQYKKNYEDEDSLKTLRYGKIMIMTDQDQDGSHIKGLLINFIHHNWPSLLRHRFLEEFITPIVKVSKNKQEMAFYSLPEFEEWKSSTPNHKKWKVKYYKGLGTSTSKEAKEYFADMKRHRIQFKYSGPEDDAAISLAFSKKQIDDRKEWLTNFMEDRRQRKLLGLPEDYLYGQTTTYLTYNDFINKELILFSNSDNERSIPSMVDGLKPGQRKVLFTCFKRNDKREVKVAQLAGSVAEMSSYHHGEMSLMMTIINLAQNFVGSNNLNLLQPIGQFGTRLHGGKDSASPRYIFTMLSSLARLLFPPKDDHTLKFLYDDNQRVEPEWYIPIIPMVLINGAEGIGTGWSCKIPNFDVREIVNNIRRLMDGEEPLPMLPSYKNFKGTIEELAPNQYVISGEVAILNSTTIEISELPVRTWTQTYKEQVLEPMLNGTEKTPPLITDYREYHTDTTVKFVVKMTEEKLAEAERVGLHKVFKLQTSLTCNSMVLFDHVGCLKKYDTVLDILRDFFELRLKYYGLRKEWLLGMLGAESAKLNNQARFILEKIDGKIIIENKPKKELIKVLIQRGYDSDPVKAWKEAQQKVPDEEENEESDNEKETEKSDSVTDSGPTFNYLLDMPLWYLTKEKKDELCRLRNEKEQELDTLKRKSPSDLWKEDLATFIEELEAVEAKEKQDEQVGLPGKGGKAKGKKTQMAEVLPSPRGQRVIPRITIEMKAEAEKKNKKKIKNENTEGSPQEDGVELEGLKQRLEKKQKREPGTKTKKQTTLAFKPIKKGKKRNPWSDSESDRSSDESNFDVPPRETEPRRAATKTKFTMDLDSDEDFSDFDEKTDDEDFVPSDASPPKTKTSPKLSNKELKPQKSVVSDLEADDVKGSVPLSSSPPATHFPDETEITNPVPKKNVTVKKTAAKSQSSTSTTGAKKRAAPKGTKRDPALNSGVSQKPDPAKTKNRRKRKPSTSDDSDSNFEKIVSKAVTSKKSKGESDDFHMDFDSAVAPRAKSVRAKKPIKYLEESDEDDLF
Procedure: Consequently, the effects of the synthesized compounds on Topo II activity were evaluated with a cell-free assay using a purified human DNA Topo II-protein-mediated relaxation of the negatively supercoiled pHOT1 plasmid DNA [40]. […] Two Topo II inhibitors (doxorubicin and etoposide) were used as positive controls.
The reaction was terminated by adding 2 μL of 10% SDS, followed by 2.5 μL of proteinase K (50 μg/mL) to digest the bound protein. The system was incubated at 37 °C for 15 min. The DNA product was finally analyzed using electrophoresis on a vertical 1.5% agarose gel at 2 volts/cm in 1 × TAE buffer and photographed using the Eagle Eye II system (Stratagene, La Jolla, CA, USA).
Figure 2 Effects of compounds on topoisomerase II activity. Effects on Topo II-mediated relaxation of supercoiled pHOT1 plasmid DNA in a cell-free system. Positive control: etoposide (10 µM); doxorubicin (5 µM) used as Topo II poison (induction of linear DNA); DNA relaxation: plasmid DNA + topo IIα + solvent control. Nick, nicked DNA; Sc, supercoiled DNA; Lin, linear DNA.

HCT-116 cells [3] = experiment: Annexin-V/PI apoptosis assay; format: cell-based, human; conditions: 10 µM, 24 h
Procedure: For the same set of compounds, the apoptosis-inducing effects in HCT-116 cells were assessed using Annexin-V/PI double staining at 10 µM (Figure 3).
The number of apoptotic/necrotic cells was analyzed using flow cytometry following the manufacturer’s protocol. Markers were assessed using a FACS-Caliburflow cytometer (Beckman Coulter, Taipei, Taiwan) and analyzed using WinMDI 2.8 software.
as §1

## c1ccc(CNc2c3ccccc3nc3ccccc23)cc1 [Compound 1, Acridin-9-yl-benzyl-amine]
[1]
  inhibition at 10 µM: 62.7%
HCT-116 cells [2]
  effect on cell cycle: arrested the cell cycle in the S phase

## Cc1ccccc1CNc1c2ccccc2nc2ccccc12 [Compound 2, Acridin-9-yl-(2-methylbenzyl)-amine]
[1]
  inhibition at 10 µM: 77.7%
HCT-116 cells [2]
  effect on cell cycle: cell cycle arrest in the G2/M phase

## Cc1cccc(CNc2c3ccccc3nc3ccccc23)c1 [Compound 3, Acridin-9-yl-(3-methylbenzyl)-amine]
[1]
  inhibition at 10 µM: 77.2%
HCT-116 cells [2]
  effect on cell cycle: cell cycle arrest in the G2/M phase

## Cc1ccc(CNc2c3ccccc3nc3ccccc23)cc1 [Compound 4, Acridin-9-yl-(4-methylbenzyl)-amine]
[1]
  inhibition at 10 µM: 74.8%
HCT-116 cells [2]
  effect on cell cycle: increased the number of cells in the S phase and G2/M phase

## COc1ccccc1CNc1c2ccccc2nc2ccccc12 [Compound 5, Acridin-9-yl-(2-methoxybenzyl)-amine]
[1]
  inhibition at 10 µM: 60.8%
HCT-116 cells [2]
  effect on cell cycle: does not affect the cell cycle

## COc1cccc(CNc2c3ccccc3nc3ccccc23)c1 [Compound 6, Acridin-9-yl-(3-methoxybenzyl)-amine]
[1]
  inhibition at 10 µM: 63.1%
other
  melting point: 107 to 109 °C

## COc1ccc(CNc2c3ccccc3nc3ccccc23)cc1 [Compound 7, Acridin-9-yl-(4-methoxybenzyl)-amine]
[1]
  inhibition at 10 µM: 63.2%
other
  melting point: 116 to 118 °C

## Fc1ccccc1CNc1c2ccccc2nc2ccccc12 [Compound 8, Acridin-9-yl-(2-fluorobenzyl)-amine]
[1]
  inhibition at 10 µM: 56.5%
Human DNA Topo II
  DNA band pattern in Topo II relaxation assay: larger base pair band than nicked DNA
HCT-116 cells [2]
  effect on cell cycle: cell cycle arrest in the G2/M phase

## Fc1cccc(CNc2c3ccccc3nc3ccccc23)c1 [Compound 9, Acridin-9-yl-(3-fluorobenzyl)-amine]
[1]
  inhibition at 10 µM: 64.2%
Human DNA Topo II
  DNA band pattern in Topo II relaxation assay: larger base pair band than nicked DNA
HCT-116 cells [2]
  effect on cell cycle: cell cycle arrest in the G2/M phase

## Fc1ccc(CNc2c3ccccc3nc3ccccc23)cc1 [Compound 10, Acridin-9-yl-(4-fluorobenzyl)-amine]
[1]
  inhibition at 10 µM: 72.3%
HCT-116 cells [2]
  effect on cell cycle: increased the number of cells in the S phase and G2/M phase

## Clc1ccccc1CNc1c2ccccc2nc2ccccc12 [Compound 11, Acridin-9-yl-(2-chlorobenzyl)-amine]
[1]
  inhibition at 10 µM: 78.4%
Human DNA Topo II
  DNA band pattern in Topo II relaxation assay: larger base pair band than nicked DNA
  concentration at which Topo II inhibition (increase of supercoiled DNA) is shown: 0.04 µM
HCT-116 cells [2]
  effect on cell cycle: cell cycle arrest in the G2/M phase

## Clc1cccc(CNc2c3ccccc3nc3ccccc23)c1 [Compound 12, Acridin-9-yl-(3-chlorobenzyl)-amine]
[1]
  inhibition at 10 µM: 73%
Human DNA Topo II
  concentration at which Topo II inhibition (increase of supercoiled DNA) is shown: 0.2 µM
HCT-116 cells [2]
  effect on cell cycle: cell cycle arrest in the G2/M phase

## Clc1ccc(CNc2c3ccccc3nc3ccccc23)cc1 [Compound 13, Acridin-9-yl-(4-chlorobenzyl)-amine]
[1]
  inhibition at 10 µM: 59.4%
other
  melting point: 145 to 147 °C
HCT-116 cells [2]
  effect on cell cycle: cell cycle arrest in the G2/M phase

## c1coc(CNc2c3ccccc3nc3ccccc23)c1 [Compound 14, Acridin-9-yl-furan-2-ylmethyl-amine]
[1]
  inhibition at 10 µM: 38.4%
Human DNA Topo II
  DNA band pattern in Topo II relaxation assay: larger base pair band than nicked DNA
HCT-116 cells [3]
  induction of apoptosis: 20%–50%
HCT-116 cells [2]
  effect on cell cycle: arrested the cell cycle in the S phase

## COc1cccc(CNc2c3ccccc3nc3ccccc23)c1OC [Compound 16, Acridin-9-yl-(2,3-dimethoxybenzyl)-amine]
[1]
  inhibition at 10 µM: 63.9%
other
  melting point: 175 to 177 °C

## COc1ccc(CNc2c3ccccc3nc3ccccc23)c(OC)c1 [Compound 17, Acridin-9-yl-(2,4-dimethoxybenzyl)-amine]
[1]
  inhibition at 10 µM: 60.8%
other
  melting point: 170 to 172 °C

## COc1ccc(CNc2c3ccccc3nc3ccccc23)cc1OC [Compound 18, Acridin-9-yl-(3,4-dimethoxybenzyl)-amine]
[1]
  inhibition at 10 µM: 81.6%
Human DNA Topo II
  DNA band pattern in Topo II relaxation assay: larger base pair band than nicked DNA
HCT-116 cells [3]
  induction of apoptosis: 20%–50%
HCT-116 cells [2]
  effect on cell cycle: increased the number of cells in the S phase and G2/M phase

## COc1ccc(CNc2c3ccccc3nc3ccccc23)cc1F [Compound 19, Acridin-9-yl-(3-fluoro-4-methoxybenzyl)-amine]
[1]
  inhibition at 10 µM: 76.2%
other
  melting point: 145 to 147 °C

## Fc1cccc(CNc2c3ccccc3nc3ccccc23)c1F [Compound 20, Acridin-9-yl-(2,3-difluorobenzyl)-amine]
[1]
  inhibition at 10 µM: 40.7%
Human DNA Topo II
  DNA band pattern in Topo II relaxation assay: larger base pair band than nicked DNA
HCT-116 cells [3]
  induction of apoptosis: 20%–50%
HCT-116 cells [2]
  effect on cell cycle: cell cycle arrest in the S phase and reduced the percentage of cells in the G2/M phase

## Fc1ccc(CNc2c3ccccc3nc3ccccc23)c(F)c1 [Compound 21, Acridin-9-yl-(2,4-difluorobenzyl)-amine]
[1]
  inhibition at 10 µM: 56.4%
Human DNA Topo II
  DNA band pattern in Topo II relaxation assay: larger base pair band than nicked DNA
HCT-116 cells [3]
  induction of apoptosis: less than 20%
HCT-116 cells [2]
  effect on cell cycle: cell cycle arrest in the G2/M phase

## Fc1ccc(CNc2c3ccccc3nc3ccccc23)cc1F [Compound 22, Acridin-9-yl-(3,4-difluorobenzyl)-amine]
[1]
  inhibition at 10 µM: 64.8%
Human DNA Topo II
  DNA band pattern in Topo II relaxation assay: larger base pair band than nicked DNA
HCT-116 cells [3]
  induction of apoptosis: less than 20%
HCT-116 cells [2]
  effect on cell cycle: cell cycle arrest in the G2/M phase

## c1ccc(CCNc2c3ccccc3nc3ccccc23)cc1 [Compound 23, Acridin-9-yl-phenethyl-amine]
[1]
  inhibition at 10 µM: 60.7%
other
  melting point: 151 to 153 °C

## c1csc(-c2ccc(CNc3c4ccccc4nc4ccccc34)cc2)c1 [Compound 24, Acridin-9-yl-(4-thiophen-2-yl-benzyl)-amine]
[1]
  inhibition at 10 µM: 96.9%
Human DNA Topo II
  DNA band pattern in Topo II relaxation assay: larger base pair band than nicked DNA
HCT-116 cells [3]
  induction of apoptosis: 20%–50%
HCT-116 cells [2]
  effect on cell cycle: arrested the cell cycle in the S phase

## COc1ccc2nc3ccccc3c(NCc3ccccc3)c2c1 [Compound 25, Benzyl-(2-methoxyacridin-9-yl)-amine]
[1]
  inhibition at 10 µM: 80%
Human DNA Topo II
  DNA band pattern in Topo II relaxation assay: larger base pair band than nicked DNA
HCT-116 cells [3]
  induction of apoptosis: 20%–50%
HCT-116 cells [2]
  effect on cell cycle: cell cycle arrest in the G2/M phase; also recorded: increased the number of cells in the S phase and G2/M phase

## COc1ccc2nc3ccccc3c(NCc3ccc(C)cc3)c2c1 [Compound 26, (2-Methoxyacridin-9-yl)-(4-methylbenzyl)-amine]
[1]
  inhibition at 10 µM: 79.9%
other
  melting point: 131 to 133 °C

## COc1ccc(CNc2c3ccccc3nc3ccc(OC)cc23)cc1 [Compound 27, (2-Methoxyacridin-9-yl)-(4-methoxybenzyl)-amine]
[1]
  inhibition at 10 µM: 87.9%
other
  melting point: 168 to 170 °C

## COc1ccc2nc3ccccc3c(NCc3ccc(F)cc3)c2c1 [Compound 28, (4-Fluorobenzyl)-(2-methoxyacridin-9-yl)-amine]
[1]
  inhibition at 10 µM: 92.2%
Human DNA Topo II
  concentration at which Topo II inhibition (increase of supercoiled DNA) is shown: 1 µM
HCT-116 cells [3]
  induction of apoptosis: less than 20%
HCT-116 cells [2]
  effect on cell cycle: increased the number of cells in the S phase and G2/M phase

## COc1ccc2nc3ccccc3c(NCc3ccc(Cl)cc3)c2c1 [Compound 29, (4-Chlorobenzyl)-(2-methoxyacridin-9-yl)-amine]
[1]
  inhibition at 10 µM: 93.3%
other
  melting point: 178 to 180 °C

## Cc1ccc2nc3ccccc3c(NCc3ccccc3)c2c1 [Compound 30, Benzyl-(2-methylacridin-9-yl)-amine]
[1]
  inhibition at 10 µM: 64.5%
Human DNA Topo II
  DNA band pattern in Topo II relaxation assay: larger base pair band than nicked DNA
HCT-116 cells [3]
  induction of apoptosis: less than 20%
HCT-116 cells [2]
  effect on cell cycle: cell cycle arrest in the G2/M phase
